From patent US4731363A, “Thromboxane synthase inhibitors as insulin lowering agents and antiobesity agents” (priority 1986, dated 1988)

Columns and labels:
TXA2 Synthase = assay: TXA2 synthase IC50 as listed in Table I (enzyme source not stated); format: biochemical
Experimental: Determination of Inhibition of Thromboxane Synthase Activity Isolation of Human Platelet Microsomes
(§1) Assay for Thromboxane Synthase
(§2) To a 12×75 mm tube containing [1-^14 C] PGH2 (2 μg, 0.01 μCi or 0.05 μCi) and inhibitor (1 mM final assay concentration, in 10 μl of ethanol) in 225 μl of phosphate buffer (0.1M, pH 7.5), was added to an aliquot of guinea pig lung microsomes (25 μl, containing 400 μg protein) or an aliquot of human platelet microsomes (25 μl, containing .congruent.[…] protein). The solution was incubated in a 22° water bath for 2 min.; ether (1 ml) and citric acid (25 μMoles) were added, and the tube plunged into an acetone-dry ice bath. The ether extract was transferred to a 1.0 ml Reacti-vial, and the volume reduced under nitrogen to .congruent.50 μl.
(§3) The extract was applied to an I.T.L.C., type SG, glass fiber sheet (Gelman Instrument Co., Ann Arbor, Mich.) and developed in isooctane; methyl ethyl ketone: acetic acid (100:19:1 or 100:9:1) (19). The sheets were air dried and scanned using a Berthold LB 2760 Radiochromatographic Scanner. In certain cases, based on the radiochromatographic profile obtained, the sheets were cut, the appropriate regions placed in scintillation vials, 10 ml of LSC cocktail (Yorktown Research, S. Hackensack, NJ) added, and the relative cpm determined.

obese Zucker rats = assay: Antiobesity activity in vivo in obese Zucker rats; set-up: species or system rat; conditions: 16 to 18 days; for Body Weight Gain: treated minus control
Experimental: Determination of Antiobesity Activity
Thromboxane synthase inhibitors were evaluated for antiobesity activity in vivo. Body weight, food intake and circulating insulin levels were monitored during periods of drug treatment. Analysis of carcass composition was performed at study termination.
Animals, Diets and Drug Administration
Lean and obese male and female Zucker rats bred at Hoffmann-La Roche Inc. (Nutley, NJ) were kept in wire-bottomed individual cages in light (12 hr dark and light cycles beginning at 6 p.m. and 6 a.m., respectively) and temperature-controlled (22°) rooms. All rats were fed chow diet (Ralston Purina Co., St. Louis, MO) ad libitum until one to three weeks before the start of drug treatment, at which time they were trained to consume a high glucose low fat (1% corn oil) diet which is herein referred to as G-70:1% CO. Following the one to three-week training period on G-70:1% CO, the average daily food intake was calculated, and the rats were weighed and divided into groups of four to seven rats each.
The control animals continued to eat the G-70:1% CO diet ad libitum, and the experimental groups were given G-70:1% CO diet containing drug (also fed ad libitum). The amount of drug added to the diet of each experimental group was based on calculations of food consumed per kg body weight using data collected at the end of the training period. […] The period of drug treatment ranged from 16 to 18 days as noted in the legends to the tables and graph. Food intake and body weight were recorded either daily or twice a week throughout the duration of the study. The amount of drug administered was calculated from the food intake per kg body weight for each experimental group. Body weight data are reported as the difference between the body weight gains of control and drug-treated animals. Food intake and insulin data are reported as percent of control.
^a Average duration of treatment was 16 to 18 days.
^b Body weight gain was computed by taking the difference between the
weight gain of treated and control rats.

[1] = biological target: T1, thromboxane synthase (Guinea Pig Lung Microsomes) (Cavia porcellus, UniProt H0UT36); assay: biochemical; conditions: enzyme source G = Guinea Pig Lung Microsomes; read-out: IC50
T1 construct: The lungs were removed, freed of trachea and the majority of blood removed by rinsing the lungs with buffer; from tissue; host or cells: lungs of male guinea pigs (microsomes, 110,000 g pellet)
Experimental: In said assay procedure, microsomes from guinea pig lung or human platelets are added to an endoperoxide intermediate in prostaglandin biosynthesis and the inhibitor in phosphate buffer solution followed by incubation, extraction and determination of the extent of thromboxane synthase inhibition by TLC with radiochromatographic profile analysis. […]
Isolation of Guinea Pig Lung Microsomes
Four male guinea pigs (.congruent.500 g each) were sacrificed by spinal dislocation. The lungs were removed, freed of trachea and the majority of blood removed by rinsing the lungs with buffer (0.1M phosphate pH 7.5) via the pulmonary artery. The lung tissue (18.3 g total wet wt.), was then minced, suspended in three volumes of buffer and homogenized using, initially, a Brinkmann polytron homogenizer and, finally, a glass-teflon tissue grinder. The homogenate was centrifuged at 12,000 g for 1 hr. and the resultant supernatant recentrifuged at 110,000 g for 1 hr. The 110,000 g pellet was taken up in 10 ml of buffer, divided into 5×2 ml aliquots and stored at -70° until use.
Low specific activity PGH2 (3.3 μCi/μmole) was obtained from Dr. W. E. M. Lands of the University of Michigan. PGH2 of higher specific activity (16.0 μCi/μmole) was purchased from Ran Biochemicals, Tel-Aviv, Israel.
The inhibitors tested were prepared as solutions (1-10 mg/ml) in 95% ethanol.
as §1, §2, §3

male Zucker rats = assay: Carcass weight and carcass lipid and protein levels in male Zucker rats; format: in vivo, rat; conditions: 29 days; for Carcass Protein % of carcass weight / Carcass Protein total / Carcass Lipids % of carcass weight / Carcass Lipids total / Carcass Weight: mean ± S.E.
Experimental: In one study, carcass composition was determined. After treatment, rats were sacrificed by decapitation, and livers and blood were removed. Carcasses were weighed, saponified in alcoholic potassium hydroxide, acidified and extracted with petroleum ether. The petroleum ether supernatants were transferred to preweighed glass vials, evaporated immediately to dryness under nitrogen and reweighed. Total carcass data are expressed in grams and percentages of carcass weight. An aliquot of saponified carcass extract was neutralized, and total carcass nitrogen was determined using Kjeldahl procedure. Carcass protein data are expressed in grams and percentages of carcass weight.
^a Four month old male Zucker rats (four per group) were fed G70:1%
corn oil diet ad libitum for 24 days prior to treatment.
1[4(1H--imidazol1-yl)phenyl]ethanone was then mixed into the G70:1% corn
oil diet and rats were fed ad libitum for 29 days. On day 29 rats were
killed by decapitation and the carcasses (minus liver and blood) were
analyzed for total lipid and protein. Each value is the mean ± S.E.
^b Amount of 1[4(1H--imidazol1-yl)phenyl]ethanone ingested per day pe
^c Values in parentheses indicate percent of control.

[2] = Lean, 98 mg per day per kg in diet
[3] = Lean, 98 mg per day per kg in diet, P ≤ 0.05
[4] = Obese, 87 mg per day per kg in diet

T1 sequence (H0UT36 entry or part of it): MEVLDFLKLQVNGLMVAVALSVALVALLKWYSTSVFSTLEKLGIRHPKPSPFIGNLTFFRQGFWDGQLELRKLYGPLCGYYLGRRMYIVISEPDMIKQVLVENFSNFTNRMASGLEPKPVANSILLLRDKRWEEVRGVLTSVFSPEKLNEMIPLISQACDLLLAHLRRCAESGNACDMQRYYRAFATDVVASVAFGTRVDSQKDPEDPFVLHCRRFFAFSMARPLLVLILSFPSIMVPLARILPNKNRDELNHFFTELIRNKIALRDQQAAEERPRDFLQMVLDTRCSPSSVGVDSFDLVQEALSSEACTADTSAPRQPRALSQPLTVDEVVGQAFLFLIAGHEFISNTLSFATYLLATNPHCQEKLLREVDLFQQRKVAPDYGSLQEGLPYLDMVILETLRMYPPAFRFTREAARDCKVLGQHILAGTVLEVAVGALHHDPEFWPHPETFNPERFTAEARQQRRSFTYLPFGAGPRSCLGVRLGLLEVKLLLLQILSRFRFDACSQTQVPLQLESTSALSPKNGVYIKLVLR

## CC(=O)c1ccc(-n2ccnc2)cc1 [1-[4-(1H--imidazol-1-yl)phenyl]ethanone, 1-[4-(1H-imidazol-1-yl)phenyl]ethanone]
TXA2 Synthase
  IC50: 10 µM
Obese Zucker rats; 60 mg/kg in diet, P ≤ 0.05
  Food Consumption: 82 ± 3 % of control
  Body Weight Gain: -25 g
Obese Zucker rats; 60 mg/kg in diet, not marked significant
  Insulin: 66 ± 16 % of control
Obese Zucker rats; 87 mg/kg in diet, P ≤ 0.05
  Food Consumption: 84 ± 1 % of control
  Insulin: 32 ± 5 % of control
  Body Weight Gain: -32 g
Obese Zucker rats; 113 mg/kg in diet, P ≤ 0.05
  Food Consumption: 74 ± 1 % of control
  Insulin: 24 ± 1 % of control
  Body Weight Gain: -74 g
[1]
  IC50: 1 to 10 µM
Male Zucker rats; [2]
  Carcass Lipids % of carcass weight, percent of control: 60% of control
  Carcass Lipids total, percent of control: 50% of control
  Carcass Protein % of carcass weight, percent of control: 111% of control
  Carcass Protein total, percent of control: 87% of control
  Carcass Weight, percent of control: 84% of control
  Carcass Protein % of carcass weight: 21 ± 2 % of carcass weight
  Carcass Protein total: 75 ± 5 g
Male Zucker rats; [3]
  Carcass Lipids % of carcass weight: 8 ± 1 % of carcass weight
  Carcass Lipids total: 29 ± 5 g
  Carcass Weight: 361 ± 27 g
Male Zucker rats; [4]
  Carcass Lipids % of carcass weight, percent of control: 104% of control
  Carcass Lipids total, percent of control: 86% of control
  Carcass Protein % of carcass weight, percent of control: 131% of control
  Carcass Protein total, percent of control: 109% of control
  Carcass Weight, percent of control: 83% of control
  Carcass Lipids % of carcass weight: 49 ± 1 % of carcass weight
  Carcass Lipids total: 225 ± 6 g
  Carcass Protein % of carcass weight: 18 ± 2 % of carcass weight
  Carcass Protein total: 81 ± 4 g
Male Zucker rats; Obese, 87 mg per day per kg in diet, P ≤ 0.05
  Carcass Weight: 460 ± 28 g
